Laboratory results from patent US9580418B2, “Bicyclic aromatic carboxamide compounds useful as Pim kinase inhibitors” (Incyte Corporation, priority 2014, dated 2017).

Legend:
Pim-1 = Pim-1 (Homo sapiens (Human), UniProt P11309); experiment: Pim-1 kinase assay (Pim enzyme assays, Example A); assay type: biochemical; details: 1 mM ATP, BAD peptide substrate; read-out: PIM1 IC50
Method: (§1) Pim-1 and Pim-3 kinase assays-20 μL reactions were run in white 384 well polystyrene plates dotted with 0.8 μL compound/DMSO in the assay buffer (50 mM Tris, pH 7.5, 0.01% Tween-20, 5 mM mgCl2, 0.01% BSA, 5 mM DTT), containing 0.05 μM Biotin-labeled BAD peptide substrate (AnaSpec 62269), 1 mM ATP, and 2.5 pM (Pim-1, Invitrogen PV3503) or 1.25 pM (Pim-3, Millipore 14-738) enzyme for 1 h at 25° C. Reactions were stopped by addition of 10 μL STOP Buffer (150 mM Tris, pH=7.5, 150 mM NaCl, 75 mM EDTA, 0.01% Tween-20, 0.3% BSA,) supplemented with Phospho-Bad (Ser112) Antibody (Cell Signaling 9291) diluted 666-fold, and Streptavidin donor beads (PerkinElmer 6760002) along with Protein-A acceptor beads (PerkinElmer 6760137) at 15 μg/mL each. Supplementation of the STOP buffer with beads and stopping the reactions were done under reduced light. Prior to the stopping reactions STOP buffer with beads was preincubated for 1 h in the dark at room temperature. After stopping the reactions, plates were incubated for 1 h in the dark at room temperature before reading on a PHERAstar FS plate reader (BMG Labtech) under reduced light.

Pim-2 = Pim-2 (Homo sapiens (Human), UniProt Q9P1W9); experiment: Pim-2 kinase assay (Pim enzyme assays, Example A); assay type: biochemical; details: 1 mM ATP, CREBtide peptide substrate; read-out: PIM2 IC50
Method: Pim-2 kinase assay-20 μL reactions were run in white 384 well polystyrene plates dotted with 0.8 μL compound/DMSO in the assay buffer (50 mM Tris, pH 7.5, 0.01% Tween-20, 5 mM mgCl2, 0.01% BSA, 5 mM DTT), containing 0.05 μM Fluorescein-labeled CREBtide peptide substrate (Invitrogen PV3508), 1 mM ATP, and 1 nM enzyme (Invitrogen PV3649) for 2 h at 25° C. Reactions were stopped by addition of 10 μL TR-FRET Dilution Buffer (Invitrogen PV3574) with 30 mM EDTA and 1.5 nM LanthaScreen Tb-CREB pSer133 antibody (Invitrogen PV3566). After 30 min. incubation at room temperature, plates were read on a PHERAstar FS plate reader (BMG Labtech).

Pim-3 = Pim-3 (Homo sapiens (Human), UniProt Q86V86); experiment: Pim-3 kinase assay (Pim enzyme assays, Example A); assay type: biochemical; details: 1 mM ATP, BAD peptide substrate; read-out: PIM3 IC50
Method: as §1

pBAD in KMS.12.BM cells = experiment: Pim pBAD signaling assay in KMS.12.BM cells (Example B); assay type: cell-based; details: Homo sapiens, 2.5 h incubation, pBAD ELISA
Method: KG-1A cells are purchased from ATCC (Manassas, Va.) and KMS.12.BM cells are purchased from NIBIO, JCRB cell bank (Tokyo, Japan) and maintained in the culture mediums recommended, RPMI, 10% FBS and IMDM 20% FBS (Mediatech, Manassas, Va.) respectively. To measure the pBAD inhibitory activity of the compounds, both cell lines are plated with the culture medium (1×10^6/well/100 μL for KG1A and 4×10^5 cells/well/in 100 μL for KMS12BM) into 96-well V bottom polypropylene plates (Matrix, Thermo Fisher, USA) and incubated 30 min. at 37° C. to normalize cell signaling from handling. Test compounds are added at an appropriate concentration range and further incubated for 2.5 h for KMS.12.BM cells and 4 h for KG1-A cells. Plates are centrifuged at 2000 RPM for 10 min. and supernatants aspirated. 100 μL lysis buffer with protease inhibitors (Cell Signaling Technologies, Danver, Mass., Sigma, St Louis Mo., EMD, USA) is added to the pellets, mixed well and set on ice for 30 min. Lysates are frozen overnight at −80° C. To measure the pBAD activity, a Cell Signaling ELISA kit (Cell Signaling Path Scan phosphor pBAD ELISA) is utilized. 50 μL of the lysate is tested per the ELISA protocol and the data analysis is performed by software on a SpectrMax5 plate reader (Molecular Devices, Sunnyvale, Calif.). IC50 determination is performed by fitting the curve of percent inhibition versus the log of the inhibitor concentration using the GraphPad Prism 5.0 software.

Chain of Pim-1 (P11309 whole entry): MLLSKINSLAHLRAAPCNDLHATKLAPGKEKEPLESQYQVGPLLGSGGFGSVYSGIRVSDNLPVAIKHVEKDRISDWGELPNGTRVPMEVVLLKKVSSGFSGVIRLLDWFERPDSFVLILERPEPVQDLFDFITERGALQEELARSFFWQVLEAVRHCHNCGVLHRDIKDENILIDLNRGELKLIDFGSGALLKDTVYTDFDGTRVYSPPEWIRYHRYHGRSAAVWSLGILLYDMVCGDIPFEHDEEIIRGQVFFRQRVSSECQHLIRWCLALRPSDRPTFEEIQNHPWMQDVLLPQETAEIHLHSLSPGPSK
Chain of Pim-2 (Q9P1W9 whole entry): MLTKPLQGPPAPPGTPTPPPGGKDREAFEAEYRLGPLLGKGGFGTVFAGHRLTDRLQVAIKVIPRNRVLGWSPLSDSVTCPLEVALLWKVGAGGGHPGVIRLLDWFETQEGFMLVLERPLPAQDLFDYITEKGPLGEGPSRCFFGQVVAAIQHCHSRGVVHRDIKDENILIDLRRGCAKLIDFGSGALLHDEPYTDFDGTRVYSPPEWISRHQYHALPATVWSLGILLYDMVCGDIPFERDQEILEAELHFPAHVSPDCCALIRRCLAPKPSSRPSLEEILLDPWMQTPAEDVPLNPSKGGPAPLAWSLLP

SMILES: C[C@H]1CN(c2ccncc2NC(=O)c2ccc3ccc(N4CCCC4)cc3n2)C[C@@H](N)[C@@H]1O [Example 30, N-{4-[(3R,4R,5S)-3-Amino-4-hydroxy-5-methylpiperidin-1-yl]pyridin-3-yl}-7-pyrrolidin-1-ylquinoline-2-carboxamide]
- IC50 (Pim-1): ≤ 10 nM
- IC50 (Pim-2): ≤ 100 nM
- IC50 (Pim-3): ≤ 10 nM
- IC50 (pBAD in KMS.12.BM cells): 50 to 250 nM

SMILES: COc1cc(F)c(-c2cnc3ccc(C(=O)Nc4cnccc4N4C[C@H](C)C[C@H](N)C4)nc3c2)c(F)c1 [Example 4, N-{4-[(3S,5R)-3-Amino-5-methylpiperidin-1-yl]pyridin-3-yl}-7-(2,6-difluoro-4-methoxyphenyl)-1,5-naphthyridine-2-carboxamide]
- IC50 (Pim-1): ≤ 10 nM
- IC50 (Pim-2): ≤ 100 nM
- IC50 (Pim-3): ≤ 10 nM
- IC50 (pBAD in KMS.12.BM cells): ≤ 50 nM

SMILES: N[C@@H]1CN(c2ccncc2NC(=O)c2ccc3ncc(N4CCC5(CCCO5)CC4)cc3n2)C[C@H](C2CC2)[C@H]1O [Example 42, N-{4-[(3R,4R,5S)-3-Amino-5-cyclopropyl-4-hydroxypiperidin-1-yl]pyridin-3-yl}-7-(1-oxa-8-azaspiro[4.5]dec-8-yl)-1,5-naphthyridine-2-carboxamide]
- IC50 (Pim-1): ≤ 10 nM
- IC50 (Pim-2): 100 to 1000 nM
- IC50 (Pim-3): ≤ 10 nM
- IC50 (pBAD in KMS.12.BM cells): 50 to 250 nM

SMILES: CC(C)c1ccc2ccc(C(=O)Nc3cnccc3N3C[C@@H](N)[C@H](O)[C@@H](C)C3)nc2c1 [Example 10, N-{4-[(3R,4R,5S)-3-Amino-4-hydroxy-5-methylpiperidin-1-yl]pyridin-3-yl}-7-isopropylquinoline-2-carboxamide]
- IC50 (Pim-1): ≤ 10 nM
- IC50 (Pim-2): ≤ 100 nM
- IC50 (Pim-3): ≤ 10 nM
- IC50 (pBAD in KMS.12.BM cells): ≤ 50 nM

SMILES: C[C@H]1CN(c2ccncc2NC(=O)c2ccc3ccc(-c4cccnc4)cc3n2)C[C@@H](N)[C@@H]1O [Example 47, N-(4-((3R,4R,5S)-3-Amino-4-hydroxy-5-methylpiperidin-1-yl)pyridin-3-yl)-7-(pyridin-3-yl)quinoline-2-carboxamide]
- IC50 (Pim-1): ≤ 10 nM
- IC50 (Pim-2): ≤ 100 nM
- IC50 (Pim-3): ≤ 10 nM
- IC50 (pBAD in KMS.12.BM cells): ≤ 50 nM

SMILES: C[C@@H]1C[C@H](N)CN(c2ccncc2NC(=O)c2ccc3ccc(N4CCC(c5ccncc5)CC4)cc3n2)C1 [Example 21, N-{4-[(3S,5R)-3-Amino-5-methylpiperidin-1-yl]pyridin-3-yl}-7-(4-pyridin-4-ylpiperidin-1-yl)quinoline-2-carboxamide]
- IC50 (Pim-1): ≤ 10 nM
- IC50 (Pim-2): 100 to 1000 nM
- IC50 (Pim-3): ≤ 10 nM
- IC50 (pBAD in KMS.12.BM cells): 50 to 250 nM

SMILES: C[C@@H]1C[C@H](N)CN(c2ccncc2NC(=O)c2ccc3ncc(-c4c(F)cccc4F)cc3n2)C1 [Example 1, N-{4-[(3S,5R)-3-Amino-5-methylpiperidin-1-yl]pyridin-3-yl}-7-(2,6-difluorophenyl)-1,5-naphthyridine-2-carboxamide]
- IC50 (Pim-1): ≤ 10 nM
- IC50 (Pim-2): ≤ 100 nM
- IC50 (Pim-3): ≤ 10 nM
- IC50 (pBAD in KMS.12.BM cells): ≤ 50 nM

SMILES: C[C@@H]1C[C@H](N)CN(c2ccncc2NC(=O)c2ccc3ccc(-c4ccccc4C#N)cc3n2)C1 [Example 49, N-{4-[(3S,5R)-3-Amino-5-methylpiperidin-1-yl]pyridin-3-yl}-7-(2-cyanophenyl)quinoline-2-carboxamide]
- IC50 (Pim-1): ≤ 10 nM
- IC50 (Pim-2): ≤ 100 nM
- IC50 (Pim-3): ≤ 10 nM
- IC50 (pBAD in KMS.12.BM cells): ≤ 50 nM

SMILES: C[C@H]1CN(c2ccncc2NC(=O)c2ccc3ccc(N4CCOCC4)cc3n2)C[C@@H](N)[C@@H]1O [Example 12, N-{4-[(3R,4R,5S)-3-Amino-4-hydroxy-5-methylpiperidin-1-yl]pyridin-3-yl}-7-morpholin-4-ylquinoline-2-carboxamide]
- IC50 (Pim-1): ≤ 10 nM
- IC50 (Pim-2): ≤ 100 nM
- IC50 (Pim-3): ≤ 10 nM
- IC50 (pBAD in KMS.12.BM cells): ≤ 50 nM

SMILES: C[C@H]1CN(c2ccncc2NC(=O)c2ccc3ccc(N4CCC(C#N)CC4)cc3n2)C[C@@H](N)[C@@H]1O [Example 16, N-{4-[(3R,4R,5S)-3-Amino-4-hydroxy-5-methylpiperidin-1-yl]pyridin-3-yl}-7-(4-cyanopiperidin-1-yl)quinoline-2-carboxamide]
- IC50 (Pim-1): ≤ 10 nM
- IC50 (Pim-2): ≤ 100 nM
- IC50 (Pim-3): ≤ 10 nM
- IC50 (pBAD in KMS.12.BM cells): ≤ 50 nM
